In patent publication US20200247815A1, “PYRAZOLYL-CONTAINING TRICYCLIC DERIVATIVE, PREPARATION METHOD THEREFOR AND USE THEREOF” (Jiangsu Hansoh Pharmaceutical Group Co., Ltd., priority 2017, published 2020):

What was measured:
ERK-1 kinase = molecular target: T1, ERK-1 kinase (Homo sapiens, UniProt P27361); assay: Inhibition of ERK-1 kinase activity (LANCE Ultra TR-FRET); type: biochemical; settings: ERK1 enzyme 0.4 nM, ATP 38.15 μM
T1 construct: purchased Invitrogen PV3311
Protocol: (§1) The object of this test example is to determine the inhibition effect of the compound on ERK-1 kinase activity. In vitro ERK-1 kinase analysis was carried out by using LANCE Ultra (Perkin Elmer) method. The reaction (reaction system 10 μL) was conducted by adding 2.5 μL of test compound/DMSO (final 4%, V/V, diluted to 10 concentrations (400 nM to 0.02 nM) using a 1:3 dilution scheme), 5 μL of a mixed solution of ERK1 enzyme (Invitrogen, # PV3311, final concentration: 0.4 nM) and substrate Ulight-MBP peptide (Perkin Elmer, # TRF0109-M, final concentration: 0.5 μM) formulated with a kinase buffer (50 mM Hepes pH 7.4, 10 mM MgCl2, 1 mM EGTA, 0.01% Triton X-100, 2 mM DTT) and 2.5 μL of ATP solution (Invitrogen, # PV3227, final concentration: 38.15 μM) formulated with the same buffer successively to a 384-well plate (Perkin Elmer OPTIPLATE™) and mixing well. The reaction mixture was incubated at room temperature for 60 minutes. The reaction was stopped by adding 1× LANCE Detection buffer (PerkinElmer # CR97-100) diluted with ultra-pure water, mM EDTA (Invitrogen #15575038) and 1 nM Eu-anti-p-MBP (PerkinElmer # TRF0201-M) antibody in 10 μL/well. The plate was incubated at room temperature for 60 minutes. Excitation reading was performed on Synergy H1 Hybird Reader, H1MFD (Biotek) with an excitation wavelength of 320 nm. TR-FRET rate was calculated by dividing the acceptor emission signal (signal value at 665 nM) by the Eu donor emission signal (signal value at 615 nM). The inhibition TR-FRET rate of the well treated by the compound was calculated relative to the Max signal (DMSO control) and Min signal (no enzyme added) control wells on the plate {% inhibition rate=100−[(test compound−Min average)]/(Max average−Min average)×100}. The 10 concentrations of the compound after 4-fold dilution of the reaction system were 100 nM to 0.005 nM. Abs_IC50 value was calculated by using GraphPad prism fits percentage inhibition rate and ten-point concentration data in a 4-parameter non-linear logic formula.

ERK-2 kinase = molecular target: T2, ERK-2 kinase (Homo sapiens, UniProt P28482); assay: Inhibition of ERK-2 kinase activity (LANCE Ultra TR-FRET); type: biochemical; settings: ERK-2 enzyme 0.08 nM, ATP 38.15 μM
T2 construct: purchased Invitrogen PV3313
T2 sequence (P28482 whole entry): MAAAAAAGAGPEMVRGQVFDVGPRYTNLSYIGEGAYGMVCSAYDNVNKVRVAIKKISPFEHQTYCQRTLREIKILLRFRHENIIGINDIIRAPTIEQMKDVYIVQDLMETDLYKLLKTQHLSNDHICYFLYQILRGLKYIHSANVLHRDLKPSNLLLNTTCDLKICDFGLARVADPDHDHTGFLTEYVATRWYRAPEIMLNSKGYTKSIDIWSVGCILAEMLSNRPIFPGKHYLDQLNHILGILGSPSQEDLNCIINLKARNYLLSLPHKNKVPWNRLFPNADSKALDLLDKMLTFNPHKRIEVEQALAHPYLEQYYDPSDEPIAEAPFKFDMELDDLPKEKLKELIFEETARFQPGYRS
Protocol: as §1, with “ERK-2” for “ERK-1”, “ERK-2” for “ERK1”, “PV3313,” for “PV3311,”, “0.08” for “0.4”, “EGTA” for “EGTA,”, “IX” for “1×”

[1] = system: pancreatic cancer tumor cell Mia Paca 2; assay: Inhibition of tumor cell proliferation (CellTiter-Glo); type: cell-based; settings: Homo sapiens, Miapaca-2 cell, 3-7 days
Protocol: The object of this test example is to determine the inhibition effect of the present compound on tumor cell proliferation activity. The inhibition activity of the compound on tumor cell proliferation was determined by CellTiter-Glo method, and the half inhibitory concentration IC50 of the compound for inhibiting cell proliferation activity was obtained, 50-100 μL of tumor cell suspension was inoculated in a 96-well cell culture plate with a density of 1˜5*10^4 cells/ml. The plate was incubated in an incubator for 16˜24 hours (37° C., 5% CO2). Solutions of test compounds at different concentrations obtained by gradient dilution were added to the cells in the plate. The plate was incubated in an incubator for 3-7 days (37° C., 5% CO2), 50˜100 μL of CellTiter-Glo reagent was added to each well. The plate was shaked for 10 minutes, and left to stand at room temperature for 10 minutes. The value of the chemiluminescence signal was determined by a microplate reader. The inhibition rate was calculated from the value of the chemiluminescence signal. IC50 of the compound was obtained by curve fitting based on the inhibition rate at different concentrations.
The inhibition effect of the present compound on pancreatic cancer tumor cell Mia Paca 2 proliferation activity was determined by the test, and the obtained IC50 value is shown in Table 2.

T1 sequence (P27361 whole entry): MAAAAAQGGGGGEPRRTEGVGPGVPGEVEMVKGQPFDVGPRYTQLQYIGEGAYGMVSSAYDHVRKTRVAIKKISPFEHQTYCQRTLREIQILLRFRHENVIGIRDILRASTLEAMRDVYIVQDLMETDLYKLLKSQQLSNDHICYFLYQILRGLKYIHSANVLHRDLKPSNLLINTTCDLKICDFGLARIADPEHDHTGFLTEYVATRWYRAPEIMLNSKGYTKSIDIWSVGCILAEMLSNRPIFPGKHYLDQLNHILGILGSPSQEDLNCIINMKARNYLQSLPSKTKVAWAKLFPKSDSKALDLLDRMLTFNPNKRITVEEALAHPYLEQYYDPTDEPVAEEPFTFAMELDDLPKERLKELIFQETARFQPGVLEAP

Structure (SMILES)	IC50 (ERK-1 kinase) [nM]	IC50 (ERK-2 kinase) [nM]	IC50 [1] [nM]
C[C@@H](NC(=O)c1nc2cc3c(-c4ccncn4)n[nH]c3cc2[nH]1)c1ccccc1 [Example 57, (R)—N-(1-phenylethyl)-3-(pyrimidin-4-yl)-1,7-dihydroimidazo[4,5-f]indazole-6-carboxamide]	3.51	1.43	
CN(C)C[C@@H](NC(=O)c1nc2cc3c(-c4ccncc4)n[nH]c3cc2[nH]1)c1ccccc1 [Example 90, (S)—N-(2-(dimethylamino)-1-phenylethyl)-3-(pyridin-4-yl)-1,7-dihydroimidazo[4,5-f]indazole-6-carboxamide]	1.77	1.67	
CC(C)c1cccc([C@@H](C)NC(=O)c2nc3cc4c(-c5ccncc5)n[nH]c4cc3[nH]2)c1 [Example 98, (R)—N-(1-(3-Isopropylphenyl)ethyl)-3-(pyridin-4-yl)-1,7-dihydroimidazo[4,5-f]indazole-6-carboxamide]	3.32	1.02	
COC[C@@H](NC(=O)c1nc2cc3c(-c4ccncc4)n[nH]c3cc2[nH]1)c1ccccc1 [Example 13, (S)—N-(2-methoxy-1-phenylethyl)-3-(pyridin-4-yl)-1,7-dihydroimidazo[4,5-f]indazole-6-carboxamide]	3.01	1.39	
CC(NC(=O)c1nc2cc3c(-c4ccncc4)n[nH]c3cc2[nH]1)c1cnccn1 (stereo not drawn) [Example 51, N-(1-(pyrazin-2-yl)ethyl)-3-(pyridin-4-yl)-1,7-dihydroimidazo[4,5-f]indazole-6-carboxamide]	2.42	0.91	
C[C@H](CNC(=O)c1nc2cc3c(-c4ccncc4)n[nH]c3cc2[nH]1)c1ccccc1 [Example 67, (S)—N-(2-phenylpropyl)-3-(pyridin-4-yl)-1,7-dihydroimidazo[4,5-f]indazole-6-carboxamide]	1.44	0.69	
C[C@@H](OC(=O)c1nc2cc3c(-c4ccncc4)n[nH]c3cc2[nH]1)c1ccccc1 [Example 35, (R)-1-phenylethyl 3-(pyridin-4-yl)-1,7-dihydroimidazo[4,5-f]indazole-6-carboxylate]	1.54	0.75	
O=C(c1nc2cc3c(-c4ccncc4)n[nH]c3cc2[nH]1)N1C[C@@H]1c1ccccc1 [Example 65, (S)-(2-Phenylaziridin-1-yl)(3-(pyridin-4-yl)-1,7-dihydroimidazo[4,5-f]indazol-6-yl)methanone]	3.73	1.58	
C[C@@H](CNC(=O)c1nc2cc3c(-c4ccncc4)n[nH]c3cc2[nH]1)c1ccccc1 [Example 66, (R)—N-(2-phenylpropyl)-3-(pyridin-4-yl)-1,7-dihydroimidazo[4,5-f]indazole-6-carboxamide]	1.52	0.83	
C[C@@H](NC(=O)c1nc2cc3c(-c4ccncc4)n[nH]c3cc2[nH]1)c1ccc(Br)cc1 [Example 15, (R)—N-(1-(4-bromophenyl)ethyl)-3-(pyridin-4-yl)-1,7-dihydroimidazo[4,5-f]indazole-6-carboxamide]	6.41	2.72	
COc1ccc(-c2n[nH]c3cc4[nH]c(C(=O)N[C@H](C)c5ccccc5)nc4cc23)cc1 [Example 95, (R)-3-(4-methoxyphenyl)-N-(1-phenylethyl)-1,7-dihydroimidazo[4,5-f]indazole-6-carboxamide]	4.42	2.17	
O=C(NCc1ccccc1)c1nc2cc3c(-c4ccncc4)n[nH]c3cc2[nH]1 [Example 114, N-benzyl-3-(pyridin-4-yl)-1,7-dihydroimidazo[4,5-f]indazole-6-carboxamide]	2.86	1.07	
COc1ccc(CNC(=O)c2nc3cc4c(-c5ccncc5)n[nH]c4cc3[nH]2)cc1OC [Example 3, N-(3,4-dimethoxybenzyl)-3-(pyridin-4-yl)-1,7-dihydroimidazo[4,5-f]indazole-6-carboxamide]	5.48	3.95	

These reach a lower IC50 (ERK-1 kinase). Values come first.

IC50 (ERK-1 kinase) [nM]	IC50 (ERK-2 kinase) [nM]	IC50 [1] [nM]	Structure (SMILES)
0.45	0.51	110	C[C@@H](NC(=O)c1nc2cc3c(-c4ccncc4)n[nH]c3cc2[nH]1)c1cccc(Br)c1 [Example 18, (R)—N-(1-(3-bromophenyl)ethyl)-3-(pyridin-4-yl)-1,7-dihydroimidazo[4,5-f]indazole-6-carboxamide]
0.1	0.1	202	O=C(N[C@H](CO)c1cccc(Cl)c1)c1nc2cc3c(-c4ccncc4)n[nH]c3cc2[nH]1 [Example 28, (S)—N-(1-(3-chlorophenyl)-2-hydroxyethyl)-3-(pyridin-4-yl)-1,7-dihydroimidazo[4,5-f]indazole-6-carboxamide]
0.3	0.17	59.1	Cc1cccc([C@@H](C)NC(=O)c2nc3cc4c(-c5ccncc5)n[nH]c4cc3[nH]2)c1 [Example 21, (R)-3-(pyridin-4-yl)-N-(1-(m-tolyl)ethyl)-1,7-dihydroimidazo[4,5-f]indazole-6-carboxamide]
0.52	0.32	309	O=C(N[C@H](CNC1CC1)c1ccccc1)c1nc2cc3c(-c4ccncc4)n[nH]c3cc2[nH]1 [Example 54, (S)—N-(2-(cyclopropylamino)-1-phenylethyl)-3-(pyridin-4-yl)-1,7-dihydroimidazo[4,5-f]indazole-6-carboxamide]
0.26	0.17	99.4	C[C@@H](NC(=O)c1nc2cc3c(-c4ccncc4)n[nH]c3cc2[nH]1)c1cccc(Cl)c1 [Example 22, (R)—N-(1-(3-chlorophenyl)ethyl)-3-(pyridin-4-yl)-1,7-dihydroimidazo[4,5-f]indazole-6-carboxamide]
0.25	0.08		O=C(NNc1ccccc1)c1nc2cc3c(-c4ccncc4)n[nH]c3cc2[nH]1 [Example 76, N′-phenyl-3-(pyridin-4-yl)-1,7-dihydroimidazo[4,5-f]indazole-6-carbohydrazide]
1	0.73		C[C@@H](NC(=O)c1nc2cc3c(-c4ccncc4)n[nH]c3cc2[nH]1)c1cccc(C(F)(F)F)c1 [Example 16, (R)-3-(pyridin-4-yl)-N-(1-(3-(trifluoromethyl)phenyl)ethyl)-1,7-dihydroimidazo[4,5-f]indazole-6-carboxamide]
